Measurements reported in the NIST ThermoML archive (doi:10.1016/j.jct.2019.03.023).
Where “and” joins values, the source holds several entries; their conditions need not be identical. Equal entries are not always repeated.

Assay: molar heat capacity at constant volume
Conditions: Fluid (supercritical or subcritical phases), Vacuum adiabatic calorimetry

CC(C)O [propan-2-ol]
Conditions | molar heat capacity at constant volume
452.05 K, Mass density=581.06 kg/m3 | 180.71 J/K/mol
452.1 K, Mass density=581.06 kg/m3 | 178.12 J/K/mol
452.15 K, Mass density=581.06 kg/m3 | 174.34 J/K/mol
452.2 K, Mass density=581.06 kg/m3 | 178.36 J/K/mol
452.25 K, Mass density=581.06 kg/m3 | 175.9 J/K/mol
463.48 K, Mass density=329.2 kg/m3 | 270.31 J/K/mol
463.58 K, Mass density=329.2 kg/m3 | 271.63 J/K/mol
463.68 K, Mass density=329.2 kg/m3 | 275.36 J/K/mol
463.78 K, Mass density=329.2 kg/m3 | 270.31 J/K/mol
463.83 K, Mass density=329.2 kg/m3 | 274.63 J/K/mol
463.97 K, Mass density=329.2 kg/m3 | 279.44 J/K/mol
464.18 K, Mass density=329.2 kg/m3 | 278.72 J/K/mol and 277.04 J/K/mol
464.27 K, Mass density=329.2 kg/m3 | 280.16 J/K/mol
464.42 K, Mass density=329.2 kg/m3 | 278.24 J/K/mol
464.47 K, Mass density=329.2 kg/m3 | 275.54 J/K/mol
464.97 K, Mass density=329.2 kg/m3 | 277.34 J/K/mol
465.27 K, Mass density=329.2 kg/m3 | 272.77 J/K/mol
465.34 K, Mass density=329.2 kg/m3 | 278.54 J/K/mol
482.51 K, Mass density=329.2 kg/m3 | 288.1 J/K/mol
482.6 K, Mass density=329.2 kg/m3 | 289.9 J/K/mol
482.7 K, Mass density=329.2 kg/m3 | 288.46 J/K/mol
482.8 K, Mass density=329.2 kg/m3 | 287.73 J/K/mol
482.89 K, Mass density=329.2 kg/m3 | 288.34 J/K/mol
482.99 K, Mass density=329.2 kg/m3 | 292 J/K/mol
483.09 K, Mass density=329.2 kg/m3 | 287.19 J/K/mol
483.18 K, Mass density=329.2 kg/m3 | 291.64 J/K/mol
491.97 K, Mass density=274 kg/m3 | 317.84 J/K/mol
492.07 K, Mass density=274 kg/m3 | 313.28 J/K/mol
492.16 K, Mass density=274 kg/m3 | 317.9 J/K/mol
492.25 K, Mass density=274 kg/m3 | 317.9 J/K/mol
492.35 K, Mass density=274 kg/m3 | 322.53 J/K/mol
492.44 K, Mass density=274 kg/m3 | 322.53 J/K/mol
492.54 K, Mass density=274 kg/m3 | 322.59 J/K/mol
492.63 K, Mass density=274 kg/m3 | 322.59 J/K/mol
492.73 K, Mass density=274 kg/m3 | 318.08 J/K/mol
493.86 K, Mass density=255.8 kg/m3 | 333.29 J/K/mol
493.95 K, Mass density=255.8 kg/m3 | 333.29 J/K/mol
494.05 K, Mass density=255.8 kg/m3 | 323.49 J/K/mol
494.14 K, Mass density=255.8 kg/m3 | 338.27 J/K/mol
494.24 K, Mass density=255.8 kg/m3 | 333.41 J/K/mol
494.33 K, Mass density=255.8 kg/m3 | 323.61 J/K/mol
494.43 K, Mass density=255.8 kg/m3 | 333.47 J/K/mol
494.52 K, Mass density=255.8 kg/m3 | 328.54 J/K/mol
494.52 K, Mass density=324.5 kg/m3 | 307.87 J/K/mol
494.62 K, Mass density=324.5 kg/m3 | 303.36 J/K/mol
494.71 K, Mass density=324.5 kg/m3 | 303.18 J/K/mol
494.8 K, Mass density=324.5 kg/m3 | 309.79 J/K/mol
494.99 K, Mass density=324.5 kg/m3 | 306.6 J/K/mol
495.09 K, Mass density=324.5 kg/m3 | 314.12 J/K/mol
495.27 K, Mass density=324.5 kg/m3 | 308.05 J/K/mol
495.37 K, Mass density=324.5 kg/m3 | 311.05 J/K/mol
495.46 K, Mass density=324.5 kg/m3 | 303.36 J/K/mol
495.56 K, Mass density=324.5 kg/m3 | 314.96 J/K/mol
499.41 K, Mass density=274 kg/m3 | 329.44 J/K/mol
499.5 K, Mass density=274 kg/m3 | 338.64 J/K/mol
499.6 K, Mass density=274 kg/m3 | 334.07 J/K/mol
499.69 K, Mass density=274 kg/m3 | 338.7 J/K/mol
499.79 K, Mass density=274 kg/m3 | 334.13 J/K/mol
499.88 K, Mass density=274 kg/m3 | 338.76 J/K/mol
499.97 K, Mass density=274 kg/m3 | 338.82 J/K/mol
500.07 K, Mass density=274 kg/m3 | 338.82 J/K/mol
500.16 K, Mass density=274 kg/m3 | 334.25 J/K/mol
500.25 K, Mass density=255.8 kg/m3 | 348.07 J/K/mol
500.35 K, Mass density=255.8 kg/m3 | 343.74 J/K/mol
500.44 K, Mass density=255.8 kg/m3 | 348.67 J/K/mol
500.54 K, Mass density=255.8 kg/m3 | 348.73 J/K/mol
500.63 K, Mass density=255.8 kg/m3 | 345.79 J/K/mol
500.72 K, Mass density=255.8 kg/m3 | 348.79 J/K/mol
500.82 K, Mass density=255.8 kg/m3 | 338.94 J/K/mol
500.85 K, Mass density=329.2 kg/m3 | 318.14 J/K/mol
500.91 K, Mass density=255.8 kg/m3 | 346.15 J/K/mol
500.95 K, Mass density=329.2 kg/m3 | 311.35 J/K/mol
501 K, Mass density=281.9 kg/m3 | 333.77 J/K/mol
501.04 K, Mass density=329.2 kg/m3 | 310.87 J/K/mol
501.09 K, Mass density=281.9 kg/m3 | 334.85 J/K/mol
501.1 K, Mass density=281.9 kg/m3 | 338.09 J/K/mol
501.14 K, Mass density=329.2 kg/m3 | 313.94 J/K/mol
501.23 K, Mass density=329.2 kg/m3 | 314.06 J/K/mol
501.29 K, Mass density=281.9 kg/m3 | 337.01 J/K/mol
501.33 K, Mass density=329.2 kg/m3 | 310.75 J/K/mol
501.38 K, Mass density=281.9 kg/m3 | 335.39 J/K/mol
501.42 K, Mass density=329.2 kg/m3 | 316.76 J/K/mol
501.47 K, Mass density=281.9 kg/m3 | 337.49 J/K/mol
501.53 K, Mass density=329.2 kg/m3 | 318.08 J/K/mol
501.57 K, Mass density=281.9 kg/m3 | 336.95 J/K/mol
501.62 K, Mass density=329.2 kg/m3 | 320.49 J/K/mol
501.66 K, Mass density=281.9 kg/m3 | 338.58 J/K/mol
501.75 K, Mass density=281.9 kg/m3 | 331 J/K/mol
501.81 K, Mass density=329.2 kg/m3 | 316.64 J/K/mol
501.85 K, Mass density=343.1 kg/m3 | 312.61 J/K/mol
501.9 K, Mass density=329.2 kg/m3 | 317.06 J/K/mol
501.94 K, Mass density=266.3 kg/m3 | 345.85 J/K/mol
